In patent US20220324835A1 (Nurix Therapeutics, Inc., priority 2018, published 2022):

What was measured:
T-cell [1] = experiment: CD25 cell surface staining on T-cells stimulated with anti-CD3 antibody alone (Biological Example 2); format: cell-based, human; conditions: T-cell, read-out: CD25 staining Anti-CD3 stimulation; for fold induction at 1 µM: 1 μM Cbl-b inhibitor; for fold induction at 8 µM: 8 μM Cbl-b inhibitor
Cbl-b [2] = molecular target: T1, Cbl-b (Homo sapiens, UniProt Q13191); experiment: Cbl-b inhibition assay (Cbl-b activity assay, FRET, Biological Example 1; 100 mM NaCl, 60 nM Src kinase); format: biochemical; conditions: upper bound stated in text lists; read-out: IC50 values in the Cbl-b inhibition assay of Biological Example 1
In short: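 FRET read-out: loss of signal marks inhibition. Mix = biotin-Avi-Cbl-b (N-term), Src kinase, UbcH5B-Ub(Bodipy-FL, irreversible conjugate), streptavidin-Tb, assay buffer.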

Cbl-b [3] = molecular target: T1, Cbl-b; experiment: Cbl-b activity assay (Cbl-b inhibition assay), TR-FRET of Cbl-b interaction with UbcH5B-Ub; format: biochemical; conditions: assay buffer with 100 mM NaCl, 60 nM Src kinase; read-out: Cbl-b activity IC50
In short: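 UbcH5B (C85K) conjugated to N-terminally Bodipy-Fluorescein-labeled ubiquitin served as the fluorescent partner. After compound preincubation, Src kinase (60 nM) with 1 mM ATP and 5 mM MgCl2 (final) was added for 1.5 h, followed by a further 1 h incubation. Some values were obtained with 50 mM NaCl and 30 nM Src.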

T-cell [4] = experiment: CD25 cell surface staining on T-cells co-stimulated with anti-CD3 and anti-CD28 antibody (Biological Example 2); format: cell-based, human; conditions: Homo sapiens, T-cell, read-out: CD25 staining Anti-CD3/Anti-CD28 stimulation; for fold induction at 0.3 µM: 0.3 μM Cbl-b inhibitor; for fold induction at 1 µM: 1 μM Cbl-b inhibitor; for fold induction at 4 µM: 4 μM Cbl-b inhibitor
In short: (§1)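 T-cells were stimulated with anti-CD3 antibody alone or with anti-CD28 antibody, in the presence or absence of Cbl-b inhibitor. IL-2 secretion or CD25 surface staining was measured, and values expressed as fold over the uninhibited baseline […].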

T-cell [5] = experiment: IL-2 secretion from T-cells stimulated with anti-CD3 antibody alone (Biological Example 2); format: cell-based, human; conditions: T-cell, read-out: IL-2 secretion Anti-CD3 stimulation; for fold induction at 1 µM: 1 μM Cbl-b inhibitor; for fold induction at 8 µM: 8 μM Cbl-b inhibitor
T-cell [6] = experiment: IL-2 secretion from T-cells co-stimulated with anti-CD3 and anti-CD28 antibody (Biological Example 2); format: cell-based, human; conditions: Homo sapiens, T-cell, read-out: IL-2 secretion Anti-CD3/Anti-CD28 stimulation; for fold induction at 0.3 µM: 0.3 μM Cbl-b inhibitor; for fold induction at 1 µM: 1 μM Cbl-b inhibitor; for fold induction at 4 µM: 4 μM Cbl-b inhibitor
In short: as §1

[7] = fold change over baseline, primary human total T-cells
[8] = Homo sapiens, fold change over baseline (anti-CD3/anti-CD28 stimulated T-cells without inhibitor)
[9] = fold change over baseline (anti-CD3/anti-CD28 stimulated T-cells without inhibitor)

T1 sequence (Q13191 36-427): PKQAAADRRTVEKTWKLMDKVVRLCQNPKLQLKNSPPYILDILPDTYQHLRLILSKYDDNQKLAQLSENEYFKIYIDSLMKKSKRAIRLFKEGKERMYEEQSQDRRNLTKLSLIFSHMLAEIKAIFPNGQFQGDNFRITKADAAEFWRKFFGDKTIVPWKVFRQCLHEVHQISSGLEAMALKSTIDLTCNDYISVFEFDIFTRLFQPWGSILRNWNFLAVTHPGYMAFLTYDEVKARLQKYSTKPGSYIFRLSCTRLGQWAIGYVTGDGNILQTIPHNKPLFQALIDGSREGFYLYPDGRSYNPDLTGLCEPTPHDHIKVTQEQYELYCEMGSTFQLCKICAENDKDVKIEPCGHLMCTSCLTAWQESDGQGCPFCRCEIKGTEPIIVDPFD

Row | SMILES | fold induction at 1 µM (T-cell [1]; [7]) | IC50 (Cbl-b [2]) [nM] | IC50 (Cbl-b [3]) [nM] | fold induction at 0.3 µM (T-cell [4]; [7]) | fold induction at 1 µM (T-cell [4]; [7]) | fold induction at 1 µM (T-cell [5]; [7]) | fold induction at 0.3 µM (T-cell [6]; [7]) | fold induction at 1 µM (T-cell [6]; [7]) | fold induction at 8 µM (T-cell [1]; [7]) | fold induction at 4 µM (T-cell [4]; [7]) | fold induction at 8 µM (T-cell [5]; [7]) | fold induction at 4 µM (T-cell [6]; [7]) | fold induction at 1 µM (T-cell [1]; [8]) | fold induction at 0.3 µM (T-cell [4]; [9]) | fold induction at 1 µM (T-cell [4]; [9]) | fold induction at 1 µM (T-cell [5]; [8]) | fold induction at 0.3 µM (T-cell [6]; [9]) | fold induction at 1 µM (T-cell [6]; [9])
1 | Cc1cc(C(=O)Nc2cccc(C3(C(F)(F)c4nncn4C)CC3)c2)nc(C2CC2)n1 [Compound 346, 2-cyclopropyl-N-(3-{1-[difluoro(4-methyl-4H-1,2,4-triazol-3-yl)methyl]cyclopropyl}phenyl)-6-methylpyrimidine-4-carboxamide] | 0.601 to 0.8 | ≤ 100 | < 100 | 1.01 to 1.3 | 1.01 to 1.3 | 0.101 to 0.15 | 1.01 to 2.5 | 2.51 to 5 |  |  |  |  |  |  |  |  |  | 
2 | Cn1cnnc1CC(C)(C)c1cccc(NC(=O)c2cccc(C(F)(F)F)n2)c1 [Compound 284, N-(3-(2-methyl-1-(4-methyl-4H-1,2,4-triazol-3-yl)propan-2-yl)phenyl)-6-(trifluoromethyl)picolinamide] | 0.801 to 1 | ≤ 100 | < 100 | 1.01 to 1.3 | 1.01 to 1.3 | > 0.201 | 1.01 to 2.5 | 2.51 to 5 | > 1 | 1.31 to 1.5 | > 0.201 | > 7.5 |  |  |  |  |  | 
3 | C[C@H](Cc1nncn1C)c1cc(OCC(F)F)nc(N2Cc3c(cccc3C(F)(F)F)C2=O)c1 [Compound 356, (R)-2-(6-(2,2-difluoroethoxy)-4-(1-(4-methyl-4H-1,2,4-triazol-3-yl)propan-2-yl)pyridin-2-yl)-4-(trifluoromethyl)isoindolin-1-one] | 0.801 to 1 | ≤ 100 | < 100 | 1.01 to 1.3 | 1.01 to 1.3 | 0.151 to 0.2 | 2.51 to 5 | 2.51 to 5 | > 1 | 1.31 to 1.5 | > 0.201 | > 7.5 |  |  |  |  |  | 
4 | Cc1cc(C(=O)Nc2cccc(C3(C(F)(F)c4nncn4C)COC3)c2)nc(C2CC2)n1 [Example 676, 2-cyclopropyl-N-(3-(3-(difluoro(4-methyl-4H-1,2,4-triazol-3-yl)methyl)oxetan-3-yl)phenyl)-6-methylpyrimidine-4-carboxamide] |  | ≤ 100 | < 100 |  |  |  |  |  |  |  |  |  | 0.801 to 1 | 1.01 to 1.3 | 1.31 to 1.5 | 0.101 to 0.15 | 2.51 to 5 | 5 to 7.5
5 | Cn1cnnc1CC1(c2cccc(N3Cc4c(cc(C5=CCCOC5)cc4C(F)(F)F)C3=O)c2)COC1 [Example 614] |  | ≤ 100 | < 100 |  |  |  |  |  |  |  |  |  | 0.801 to 1 | 1.01 to 1.3 | 1.01 to 1.3 | 0.101 to 0.15 | 2.51 to 5 | 2.51 to 5
6 | Cc1ccc(C(=O)Nc2cccc(C(C)Cc3nccn3C)c2)nc1C1CC1 (stereo not drawn) [Compound 214, 6-Cyclopropyl-5-methyl-N-(3-(1-(1-methyl-1H-imidazol-2-yl)propan-2-yl)phenyl)picolinamide] | < 0.6 | ≤ 10000 | 1000 to 3000 | < 1 | < 1 | 0.051 to 0.1 | > 7.5 | > 7.5 | < 0.6 | 1.01 to 1.3 | 0.051 to 0.1 | > 7.5 |  |  |  |  |  | 
7 | CCOc1cc(N2Cc3c(cc([C@H](C)N4CC[C@H](F)C4)cc3C(F)(F)F)C2=O)cc(C2(Cc3nncn3C)COC2)c1 [Example 691b, 2-(3-ethoxy-5-(3-((4-methyl-4H-1,2,4-triazol-3-yl)methyl)oxetan-3-yl)phenyl)-6-((S)-1-((S)-3-fluoropyrrolidin-1-yl)ethyl)-4-(trifluoromethyl)isoindolin-1-one] |  | ≤ 100 | < 100 |  |  |  |  |  |  |  |  |  | > 1 | 1.31 to 1.5 | 1.51 to 1.75 | 0.151 to 0.2 | 2.51 to 5 | > 7.5
8 | Cc1cc(C(=O)Nc2cc(C3CC3)cc(C3(Cc4nncn4C)COC3)c2)nc(C2CC2)n1 [Example 698, 2-cyclopropyl-N-(3-cyclopropyl-5-(3-((4-methyl-4H-1,2,4-triazol-3-yl)methyl)oxetan-3-yl)phenyl)-6-methylpyrimidine-4-carboxamide] |  | ≤ 100 | < 100 |  |  |  |  |  |  |  |  |  | > 1 | 1.01 to 1.3 | 1.31 to 1.5 | > 0.201 | 2.51 to 5 | > 7.5
9 | Cn1cnnc1CC1(c2cccc(N3Cc4c(ccnc4C(F)(F)F)C3=O)c2)COC1 [Example 696, 2-(3-(3-((4-methyl-4H-1,2,4-triazol-3-yl)methyl)oxetan-3-yl)phenyl)-4-(trifluoromethyl)-2,3-dihydro-1H-pyrrolo[3,4-c]pyridin-1-one] |  | ≤ 100 | < 100 |  |  |  |  |  |  |  |  |  | 0.601 to 0.8 | 1.01 to 1.3 | 1.01 to 1.3 | < 0.05 | 1.01 to 2.5 | 1.01 to 2.5
10 | Cn1cnnc1C(F)(F)C1(c2cccc(N3Cc4c(cc(CN5CC(F)C5)cc4C(F)(F)F)C3=O)c2)COC1 [Example 679, 2-(3-(3-(difluoro(4-methyl-4H-1,2,4-triazol-3-yl)methyl)oxetan-3-yl)phenyl)-6-((3-fluoroazetidin-1-yl)methyl)-4-(trifluoromethyl)isoindolin-1-one] |  | ≤ 100 | < 100 |  |  |  |  |  |  |  |  |  | > 1 | 1.01 to 1.3 | 1.01 to 1.3 | 0.101 to 0.15 | 2.51 to 5 | 5 to 7.5
11 | Cn1cnnc1CC1(c2cccc(N3Cc4c(cc(CN5CC[C@H](F)C5)nc4C4CC4)C3=O)c2)COC1 [Example 578, (S)-4-cyclopropyl-6-((3-fluoropyrrolidin-1-yl)methyl)-2-(3-(3-((4-methyl-4H-1,2,4-triazol-3-yl)methyl)oxetan-3-yl)phenyl)-2,3-dihydro-1H-pyrrolo[3,4-c]pyridin-1-one] |  | ≤ 100 | < 100 |  |  |  |  |  |  |  |  |  | 0.801 to 1 | 1.01 to 1.3 | 1.01 to 1.3 | 0.051 to 0.1 | 2.51 to 5 | 5 to 7.5
12 | C[C@@H](c1cc2c(c(C(F)(F)F)c1)CN(c1cccc(C3(Cc4nncn4C)COC3)c1)C2=O)N1CC(F)C1 [Example 668b, (S)-6-(1-(3-fluoroazetidin-1-yl)ethyl)-2-(3-(3-((4-methyl-4H-1,2,4-triazol-3-yl)methyl)oxetan-3-yl)phenyl)-4-(trifluoromethyl)isoindolin-1-one] |  | ≤ 100 | < 100 |  |  |  |  |  |  |  |  |  | > 1 | 1.31 to 1.5 | 1.51 to 1.75 | 0.151 to 0.2 | 5 to 7.5 | > 7.5
